Data published in PMC10357929 (Journal of the American Chemical Society, 2023).
Entries after “also recorded” stand apart in the source; their conditions may differ.

Experiments:
p53Y220C [1] = biological target: T1, p53Y220C (Homo sapiens, UniProt P04637, Y220C); assay: Western blot / FLAG-IP of p53K382ac level in NCI-H1299; format: cell-based
p53Y220C and p300 = p53Y220C and p300 (Homo sapiens, UniProt P04637+Q09472, Y220C); assay: p53-FLAG pull-down of p53Y220C-p300 ternary complex; format: cell-based; details: 24 h
NCI-H1299 p53-null cells [2] = assay: Cell viability assay; format: cell-based; details: 72 h
NCI-H1299 p53-null cells [3] = assay: Western blot of p53K382ac level in NCI-H1299 p53-null cells; format: cell-based; details: 0, 1, 3, 10 μM, 24 h
BxPC3 cells = assay: Clonogenic assay, BxPC3; format: cell-based; details: 1, 3, 10 μM, 14 days; compared to PK9328 and compound 33
NUGC-3 cells = assay: Clonogenic assay, NUGC-3; format: cell-based; details: 1, 3, 10 μM, 14 days; compared to PK9328 and compound 33
p53Y220C [4] = biological target: T1, p53Y220C; assay: Western blot of p53K382ac level in BxPC3 cells; format: cell-based; details: 10 μM, 24 h
p53Y220C [5] = biological target: T1, p53Y220C; assay: Western blot of p53K382ac level in NUGC-3 cells; format: cell-based; details: 10 μM, 24 h
[6] = tested on: p53 WT U-2OS cancer cells; assay: Cell viability assay; format: cell-based; details: 72 h; for inhibition of cell growth at the highest concentration tested: 10 μM
PNT2 cells = assay: Cytotoxicity in normal prostate cell line PNT2; format: cell-based; details: read-out: GI50 (cytotoxicity)
p53-target genes [7] = assay: RT-qPCR of p53-target genes in NCI-H1299 p53Y220C stable cells; format: cell-based; details: 10 μM, 24 h; for increase in p21 mRNA expression: relative to DMSO
p53-target genes [8] = assay: RNA-seq in NCI-H1299 p53-null and p53Y220C cells; format: cell-based, human; details: 10 μM, 24 h
BxPC3 (p53Y220C/−) cells = details: for GI50: 72 h
[9] = tested on: NUGC-3 (p53Y220C/+) cells; details: 72 h
[10] = tested on: other bromodomain-containing proteins; assay: BromoMelt profiling against other bromodomain-containing proteins; details: 10 μM, duplicates
p53Y220C [11] = biological target: T1, p53Y220C; details: cited from earlier work
[12] = p300-siRNA 72 h, then compound 72 h

## CCn1c2ccc(CNCCOCCOCCOCCn3cc(COc4ccc(CCc5nc6cc(-c7c(C)noc7C)ccc6n5CCN5CCOCC5)cc4F)nn3)cc2c2ccc(-c3cc(C)cs3)cc21 [MS78]
p53Y220C [1]; 0, 1, 3, 10 μM, 24 h, NCI-H1299 p53Y220C
  K382 acetylation: significantly induced K382 acetylation
p53Y220C [1]; 10 μM, 6 h
  increase in p53K382ac level: about 2 fold
p53Y220C [1]; 10 μM, 24 h
  increase in p53K382ac level: about 4 fold
  p53K382ac induction compared to compound 7: about 2 fold
p53Y220C [1]; p300 knockdown, NCI-H1299 (p53Y220C)
  p53Y220C K382 acetylation in p300 siRNA-treated cells: significantly diminished; also recorded: abolished
p53Y220C [1]; read-out: ACE50 (the concentration at which 50% of p53Y220C is acetylated), 24 h, acetylation level at 10 μM MS78 as the maximum response
  EC50: 1.87 ± 0.3 µM
p53Y220C and p300; NCI-H1299 p53-null cells
  p53-p300 interaction (FLAG pull-down): no interaction was observed
p53Y220C and p300; NCI-H1299 p53Y220C cells
  p53Y220C-p300 interaction (FLAG pull-down): induced an interaction between p53Y220C and p300
NCI-H1299 p53-null cells [2]
  cell growth inhibition: did not induce any significant cell growth inhibition
NCI-H1299 p53-null cells [3]
  K382 acetylation: did not induce K382 acetylation
BxPC3 cells
  clonogenicity: marked reduction in clonogenicity
NUGC-3 cells
  clonogenicity: marked reduction in clonogenicity
p53Y220C [4]
  increase in the p53K382ac level: about 4 fold
p53Y220C [5]
  increase in the p53K382ac level: about 4 fold
[6]
  inhibition of cell growth at the highest concentration tested: 30–40%
  GI50: > 10 µM
PNT2 cells
  GI50: > 10 µM
p53-target genes [7]
  effect on TIGAR, BAX, and PUMA (BBC3) genes: little or modest effect
  expression of p21 (CDKN1A) and Mdm2 genes: less upregulation
  increase in p21 mRNA expression: 8 fold
p53-target genes [8]
  expression of BAX, PUMA (BBC3), and NOXA (PMAIP1) genes: no significant upregulation
  expression of DDR genes such as ATM, ATR, and CHEK1/2: downregulation
  expression of heat shock protein genes such as HSPA5, HSP40 (DNAJB1), HSP1A1/B: upregulation
NCI-H1299 p53Y220C cells; 72 h
  cell growth inhibition: concentration-dependently inhibited the cell growth
NCI-H1299 p53Y220C cells; [12]
  antiproliferative effect after knockdown of p300: abolished the antiproliferative effect
BxPC3 (p53Y220C/−) cells
  GI50: 3.3 ± 1 µM
BxPC3 (p53Y220C/−) cells; GI50 in BxPC3 and NUGC-3
  higher potency compared to the parent compound PK9328: about 4 fold
[9]
  GI50: 2.7 ± 0.5 µM
[10]
  selectivity over a panel of other BRD-containing proteins: selective for the CBP/p300 BRD

## CCn1c2ccc(CNC)cc2c2ccc(-c3cscn3)cc21 [PK9323]
p53Y220C [11]
  stabilizes p53Y220C with a melting temperature (Tm): 3.1 °C

## CCn1c2ccc(CNC)cc2c2ccc(-c3cc(C)cs3)cc21 [PK9328, reference compound]
NCI-H1299 p53-null cells [2]
  cell growth inhibition: did not induce any significant cell growth inhibition
NCI-H1299 p53-null cells [3]
  K382 acetylation: did not significantly induce K382 acetylation
[6]
  inhibition of cell growth at the highest concentration tested: 30–40%
  GI50: > 10 µM
PNT2 cells
  GI50: > 10 µM
p53-target genes [7]
  effect on TIGAR, BAX, and PUMA (BBC3) genes: little or modest effect
  expression of p21 (CDKN1A) and Mdm2 genes: upregulated
  increase in p21 mRNA expression: 12 fold
NCI-H1299 p53Y220C cells; [12]
  reduction in the cell growth in p300-siRNA-treated cells: about 50%
BxPC3 (p53Y220C/−) cells
  GI50: 13.9 ± 2.4 µM
[9]
  GI50: 12.6 ± 1.9 µM
